Laboratory results reported in patent publication US6682545B1, “System and device for preventing restenosis in body vessels” (The Penn State Research Foundation, priority 1999, dated 2004).
Entries after “also recorded” stand apart in the source; their conditions may differ.

Tests used:
[1] = test system: neointimal hyperplasia in rabbit carotid arteries; experiment: Restenosis after balloon angioplasty with ceramide-coated embolectomy catheter balloon; format: in vivo, New Zealand white rabbits; conditions: rabbit carotid artery, 2 weeks post balloon injury
Text: Experiments were designed to evaluate the therapeutic potential of ceramide-coated embolectomy catheters upon restenosis after balloon angioplasty. Initial studies assessed the extent of restenosis in rabbit carotid arteries after balloon angioplasty as a function of time. Animals were sacrificed 1, 2, 4 and 6 weeks after balloon injury. Marked neointimal hyperplasia was observed as early as 1 week and peaked at 4 weeks (FIG. 2A). […] FIGS. 2B-E illustrate hematoxylin and eosin stained cryostat sections of rabbit carotid arteries. […] Furthermore, it may be theorized that the effects of ceramide are due to biochemical actions and not lipophilic properties.
Initial experiments optimized the methods to induce restenosis after angioplasty in carotid arteries from New Zealand white rabbits. Twenty-one rabbits were divided into three experimental groups, undergoing either balloon angioplasty with a vehicle-treated catheter, a C6-ceramide-treated catheter or a dihydro-C6-ceramide-treated catheter. Each rabbit underwent identical procedures to denude the common carotid artery of endothelium and establish the cellular conditions to promote restenosis. The right common carotid served as the sham control while the left carotid served as the experimental side. […] FIG. 2A represents the time course of restenosis after angioplasty while FIGS. 2B-2E depict representative H/E stained sections. […] The scale for these photomicrographs is 200 microns. FIG. 2F quantifies the extent of restenotic lesions.

[2] = Ceramide transfer from balloon catheter to carotid artery ([3H]C6-ceramide tracer, TLC, in situ autoradiography); format: in vivo, rabbit
Experimental: The inability of experimentally effective therapies to succeed in clinical trials is often the consequence of sub-optimal doses of therapeutics being delivered to the site of injury for the appropriate duration. Moreover, the efficacy of therapy may be a consequence of biomechanical force transferring ceramide from the inflated balloon to the site of vascular lesions. Therefore, experiments were conducted to quantify ceramide transfer between the balloon and the carotid artery; the pharmacokinetics of ceramide transfer and delivery from the balloon catheter to the damaged artery was assessed. Using [^3H]C6-ceramide as a tracer, it was calculated that 70±10 nmol of C6-ceramide was applied to the balloon as a gel from a solution of 5 μmol of C6-ceramide. […] This translates to roughly 58 nmol of C6-ceramide being transferred from the balloon catheter during the angioplasty procedure. To test whether inflation of the balloon within the carotid artery was essential for optimal transfer of the ceramide, the surgical procedure was performed using noninflated balloons. The recovered ceramide mass on the inserted but noninflated balloon was 14±3 nmol. Rabbit carotid arteries treated with radiolabeled lipid were homogenized, and lipid products were separated by thin-layer chromatography (TLC) (FIG. 3A). The mass of intact ceramide isolated 15 minutes after angioplasty was 2.7±0.4 nmol for inflated balloon treatments and 0.7±0.2 nmol for noninflated balloon treatments. […] As the transferred ceramide was initially delivered to 0.0365 cm^3 of carotid artery luminal volume, the effective concentration of ceramide at the site of balloon injury is estimated to be 1.5 mmol/L. Thus, an effective and reproducible dose of ceramide can be delivered to the damaged artery as a consequence of the balloon inflation.
In situ autoradiography was utilized to document arterial penetrance for [^3H]C6-ceramide transferred from the balloon catheter after angioplasty (FIGS. 3B through 3D). […] This increase in pixel intensity reflects an increase in intact ceramide, as at this time point 89±4% of the radiolabel comigrates with authentic C6-ceramide standards. Pixel intensity was more intense in inflated (panel C) versus noninflated (panel D) arteries. Expressed as pixel density per square millimeter for 10 randomly selected blocks with background values subtracted, medial staining was increased 4.7±0.2-fold for ceramide-coated inflated versus noninflated balloons. Again, this supports the conclusion that balloon inflation leads to maximal delivery and penetrance.
The degradation of the rapidly intercalated radiolabeled ceramide by TLC was also assessed. For the 15-minute postangioplasty time point, 89±4% of the TLC-separated lipid comigrated with authentic C6-ceramide standards. This corresponded to a recovered mass of 2.7±0.4 mnol of ceramide. At 60 minutes after angioplasty, 1.3±0.6 nmol of ceramide was recovered. Thus, 50% radiolabel can still be recovered as intact ceramide in 1 hour. This decrease in ceramide mass corresponded to an increase in TLC-separated gangliosides and cerebrosides but not sphingosines.

[3] = test system: restenotic lesions after balloon angioplasty; experiment: Restenosis after balloon angioplasty, ceramide delivered in solution by infusion-type catheter; format: in vivo
Text: It is noted that infusion-type catheters have the advantage to deliver ceramide in a BSA vehicle at a discrete dose to the site of arterial injury. It was thus determined whether ceramide delivered by solution using an infusion-type catheter is also effective in reducing restenosis as ceramide delivered using a catheter with a gel coated balloon tip. The balloon at the tip of a 4F arterial bilumen irrigation embolectomy catheter was inflated to a diameter equivalent to that of the earlier experiments. Three infusions of 10 μM C6-ceramide for 1 minute each reduced restenosis after balloon angioplasty by 39%. Dihydro-C6-ceramide at an equivalent dose had no effect upon restenotic lesions. These studies further support the novelty and efficacy of ceramide-coated balloon catheters as intra-arterial site-specific delivery devices.

[4] = test system: restenosis / thrombus formation; experiment: Anticoagulation therapy (Lovenox) and thrombus formation with ceramide balloon angioplasty; format: in vivo; conditions: ceramide-treated balloon angioplasty
Text: To prevent thrombus formation, patients routinely receive anti-coagulants prior to percutaneous transluminal coronary angioplasty. Thus, the consequences of anticoagulation therapy on the effectiveness of ceramide therapy were investigated.

[5] = test system: PCNA positive vascular smooth muscle cells; experiment: PCNA immunohistochemistry of carotid arteries after angioplasty; format: in vivo, rabbit; conditions: neointimal layer, coated balloon-injured carotid artery (balloon-injured 2.8%±0.1%, control 0.2%±0.1%)
Text: The effects of ceramide treatment upon VSM cell growth in vivo were also investigated. Imunohistochemical techniques were employed to identify VSM using smooth muscle cell-specific actin antibody (FIGS. 4A-B) and cell growth using proliferating cell nuclear antigen (PCNA) antibody (FIGS. 4C-F). […] PCNA is synthesized in early G1 and S phases of the cell cycle, and thus can be used as a marker for cell proliferation. In FIGS. 4C-F, representative photomicrographs depicting PCNA positive staining are shown for control, balloon-injured, ceramide-treated and dihydroceramide-treated carotid arteries, respectively. […] C6-ceramide (0.6%±0.2%) but not dihydro-C6-ceramide (1.9%±0.3%) diminished the number of PCNA positive cells in the neointimal layer but not in the medial layer of the carotid artery.
Specifically, in FIG. 4, ceramide-treated catheters reduced PCNA expression in vascular smooth muscle cells after angioplasty. Smooth muscle actin expression was analyzed by immunohistochemistry utilizing a monoclonal anti-alpha smooth muscle antibody, and PCNA positive cell numbers were assessed with a primary mouse monoclonal IgG2a antibody for PCNA. […] These immunohistochemical micrographs are representative of four separate experiments. […]

[6] = test system: ERK2; experiment: ERK2 phosphorylation in excised carotid arteries after angioplasty (Western blot); format: in vivo; conditions: ceramide-coated balloon angioplasty, rabbit carotid arteries
Experimental: (§1) Thus, to elucidate mechanisms by which ceramide prevents restenosis, the phosphorylation states of ERK2 and PKBα were investigated using freshly excised carotid arteries after angioplasty (FIG. 5). Phosphorylation of ERK2 and PKBα were increased at 15 minutes and 24 hours post-balloon injury. The sustained phosphorylation of these kinases most likely reflects continuous remodeling of damaged arteries. […] Thus, acute ceramide therapy may directly modulate kinases or regulate putative ceramide-activated protein phosphatases that down-regulate these signaling pathways.
(§2) Specifically, in FIG. 5, ERK2 and PKBα phosphorylation was diminished after ceramide-coated balloon angioplasty in rabbit carotid arteries. Panel A depicts a representative Western blot for ERK-2 and PKBα probed using phosphorylation-specific antibodies. Lysates from NIH3T3 cells treated with or without PDGF were used as positive and negative controls, respectively. This immunoblot is representative of similar experiments using a total of 8 animals. Panels B-C quantifies the immunoblot data.

[7] = test system: PKBα; experiment: PKBα phosphorylation in excised carotid arteries after angioplasty (Western blot); format: in vivo; conditions: ceramide-coated balloon angioplasty, rabbit carotid arteries
Experimental: as §1, §2

[8] = test system: A7r5 aortic smooth muscle cells; conditions: cited from earlier work
[9] = test system: rat glomerular mesangial cells; conditions: cited from earlier work
[10] = test system: neointimal hyperplasia; experiment: Angioplasty-induced injury, other cell-permeable ceramide derivatives; conditions: in vivo
Text: Other cell-permeable ceramide derivatives can also limit neointimal hyperplasia.

[11] = test system: primary VSM isolated from rabbit carotid arteries; experiment: Apoptosis by fluorescence-activated cell sorting after propidium iodide staining; format: cell-based; conditions: 100 nM
Text: Ceramide treatment correlated with growth arrest at G0G1and not apoptosis in these smooth muscle-like pericytes. […] Thus, the therapeutic efficacy of cell-perneable ceramide in restenosis includes its ability to arrest VSM growth without inducing significant apoptosis.

[12] = 15 minutes after angioplasty, inflated balloon

CCCCCCCCCCCCC/C=C/[C@@H](O)[C@H](CO)NC(=O)CCCCC [C6-ceramide]
effect on neointimal hyperplasia / restenosis after balloon injury [1]: significantly reduced the neointimal hyperplasia; also recorded: blocked neointimal hyperplasia | inhibition of balloon-induced neointimal formation (reduction of the neointimal/medial ratio) [1]: 92% | effective concentration of ceramide at the site of balloon injury ([2]; 0.0365 cm^3 carotid artery luminal volume): ~1.5 mmol/L | recovered mass of ceramide ([2]; 15-minute postangioplasty time point): 2.7±0.4 mnol | radiolabel comigrating with authentic C6-ceramide standards (TLC) ([2]; 15 minutes after angioplasty): 89±4% | mass of intact ceramide isolated from carotid artery [2, 12]: 2.7 ± 0.4 nmol | mass of intact ceramide isolated from carotid artery ([2]; 15 minutes after angioplasty, noninflated balloon): 0.7 ± 0.2 nmol | recovered mass of ceramide ([2]; 60 minutes after angioplasty): 1.3 ± 0.6 nmol | amount remaining on the balloon ([2]; after insertion and inflation): 12 ± 2 nmol | amount applied to the balloon as a gel ([2]; from a solution of 5 μmol of C6-ceramide, [3H] tracer): 70 ± 10 nmol | radiolabel recovered as intact ceramide ([2]; in 1 hour): 50% | amount transferred from the balloon catheter during angioplasty ([2]; inflated balloon): roughly 58 nmol | recovered ceramide mass on the balloon ([2]; inserted but noninflated balloon): 14 ± 3 nmol | reduction of restenosis after balloon angioplasty ([3]; three infusions of 10 μM for 1 minute each, BSA vehicle): 39% | thrombus formation [4]: Neither ceramide- nor vehicle-treated balloon angioplasty induced thrombus formation | percentage of PCNA positive cells [5]: 0.6%±0.2% | phosphorylation state of ERK2 [6]: reduced below basal activation levels; also recorded: diminished | phosphorylation state of PKBα [7]: reduced below basal activation levels; also recorded: diminished | effect on tyrosine kinase receptor- and G-protein receptor-linked mitogenesis [8]: inhibit | effect on tyrosine kinase receptor- and G-protein receptor-linked mitogenesis [9]: inhibit

CCCCCCCCCCCCCCC[C@@H](O)[C@H](CO)NC(=O)CCCCC [dihydro-C6-ceramide, reference compound]
effect on neointimal hyperplasia / restenosis after balloon injury [1]: did not reduce restenosis | effect on neointimal hyperplasia / restenosis after balloon injury ([1]; listed as dihydro-CC6-ceramide): not | effect upon restenotic lesions ([3]; equivalent dose): had no effect | percentage of PCNA positive cells [5]: 1.9%±0.3%

CCCCCCCCCCCCC/C=C/[C@@H](O)[C@H](CO)N(C)C [dimethylsphingosine]
effect on angioplasty-induced injury [10]: effective in limiting angioplasty-induced injury

C=C1[C@@H](O)[C@@H]2O[C@]3(CC[C@H](/C=C/[C@@H](C)[C@@H]4CC(C)=C[C@@]5(O[C@H](C[C@@](C)(O)C(=O)O)CC[C@H]5O)O4)O3)CC[C@H]2O[C@@H]1[C@@H](O)C[C@H](C)[C@H]1O[C@@]2(CCCCO2)CC[C@H]1C [okadaic acid]
apoptosis ([11]; 24 hours): 52% | apoptosis ([11]; 40 hours): 69%±2%

[^3H]C6-ceramide [reference compound]
radiolabel comigrating with authentic C6-ceramide standards (TLC) ([2]; 15 minutes after angioplasty): 89±4% | arterial penetrance (in situ autoradiography) [2, 12]: observed throughout the medial layers of the artery | increase in medial staining (pixel density per square millimeter), inflated versus noninflated balloons ([2]; autoradiography, 10 randomly selected blocks, background subtracted): 4.7±0.2 fold
